Data published in the supplement of paper PMC9549728.
Structures can show the parent of a compound that is named as a salt.

Tests used:
Experiment in all cases: IC50 (viability, PrestoBlue) (log10 nM)
Details in all cases: exposure time: 72 h
[1] = tested on: murine gastric organoid RAS-activated (Kras G12D; Tp53 R172H)
Protocol: (§1)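 Murine gastric corpus organoids (normal uninduced; RAS-activated Kras G12D/Tp53 R172H; diffuse Cdh1/Apc loss; WNT-activated Apc loss/Tp53 R172H) were seeded in Matrigel into pre-spotted 384-well plates. The plates held a 196-compound library at 6.7 nM to 25,004 nM (9 doses) and were incubated 72 h. Viability was read by PrestoBlue fluorescence (560/590 nm). IC50 came from non-linear regression (Prism), reported as log10 IC50 in nM, mean of 3 passages x 2 wells.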

[2] = tested on: murine gastric organoid WNT-activated (Apc fl/fl; Tp53 R172H)
Protocol: as §1

[3] = tested on: murine gastric organoid diffuse (Cdh1 fl/fl; Apc fl/fl)
Protocol: as §1

[4] = tested on: murine normal gastric organoid
Protocol: as §1

SMILES	IC50 (log10 nM) [1]	IC50 (log10 nM) [2]	IC50 (log10 nM) [3]	IC50 (log10 nM) [4]
CCN1CCN(Cc2ccc(Nc3ncc(F)c(-c4cc(F)c5nc(C)n(C(C)C)c5c4)n3)nc2)CC1	2.88	2.47	2.7	2.94
CCNC(=O)C[C@@H]1N=C(c2ccc(Cl)cc2)c2cc(OC)ccc2-n2c(C)nnc21	3.3	1.54	3.13	2.77
COc1ccc(-c2cc3c(C)nc(N)nc3n([C@H]3CC[C@H](OCCO)CC3)c2=O)cn1	2.17	2.11	2	2.08
Nc1ncn([C@@H]2O[C@H](CO)[C@@H](O)[C@H]2O)c(=O)n1 [5-Azacytidine]	3.64	3.58	3.5	3.78
Nc1nc(=S)c2[nH]cnc2[nH]1 [6-Thioguanine]	3.8	1.35	4.29	3.73
CC1(C)CCC(CN2CCN(c3ccc(C(=O)NS(=O)(=O)c4ccc(NCC5CCOCC5)c([N+](=O)[O-])c4)c(Oc4cnc5[nH]ccc5c4)c3)CC2)=C(c2ccc(Cl)cc2)C1 [ABT-199]	4.06	3.1	4.17	3.61
Cc1c2oc3c(C)ccc(C(=O)N[C@@H]4C(=O)N[C@H](C(C)C)C(=O)N5CCC[C@H]5C(=O)N(C)CC(=O)N(C)[C@@H](C(C)C)C(=O)O[C@@H]4C)c3nc-2c(C(=O)N[C@@H]2C(=O)N[C@H](C(C)C)C(=O)N3CCC[C@H]3C(=O)N(C)CC(=O)N(C)[C@@H](C(C)C)C(=O)O[C@@H]2C)c(N)c1=O [Actinomycin D]	< 0.826	< 0.826	< 0.826	< 0.826
CN(C)C/C=C/C(=O)Nc1cc2c(Nc3ccc(F)c(Cl)c3)ncnc2cc1O[C@H]1CCOC1 [Afatinib]	3.6	1.27	1.95	1.55
COc1cc(Nc2ncc3c(n2)-c2ccc(Cl)cc2C(c2c(F)cccc2OC)=NC3)ccc1C(=O)O [Alisertib]	2	3.02	2.98	2.47
CN(C)CCN1C(=O)c2cccc3cc(N)cc(c23)C1=O [Amonafide]	3.03	2.39	3.23	3.1
CNC(=O)c1ccccc1Sc1ccc2c(/C=C/c3ccccn3)n[nH]c2c1 [Axitinib]	3.3	2.75	3.78	3.98
O=C(/C=C/c1cccc(S(=O)(=O)Nc2ccccc2)c1)NO [Belinostat]	2.61	3.27	3.29	3.2
Cn1cnc2c(F)c(Nc3ccc(Br)cc3F)c(C(=O)NOCCO)cc21 [Binimetinib]	2.28	2.96	3.03	2.09
Cc1c(N)nc([C@H](CC(N)=O)NC[C@H](N)C(N)=O)nc1C(=O)N[C@H](C(=O)N[C@H](C)[C@@H](O)[C@H](C)C(=O)N[C@H](C(=O)NCCc1nc(-c2nc(C(=O)NCCC[S+](C)C)cs2)cs1)[C@@H](C)O)[C@@H](OC1OC(CO)C(O)C(O)C1OC1OC(CO)C(O)C(OC(N)=O)C1O)c1cnc[nH]1 (some centres not stated) [Bleomycin]	3.83	> 4.4	3.57	3.85
CC(C)C[C@H](NC(=O)[C@H](Cc1ccccc1)NC(=O)c1cnccn1)B(O)O [Bortezomib]	0.871	1.16	1.1	1.14
COc1cc(Nc2c(C#N)cnc3cc(OCCCN4CCN(C)CC4)c(OC)cc23)c(Cl)cc1Cl [Bosutinib]	3.57	3.01	3.58	3.96
N#CCNC(=O)c1ccc(-c2ccnc(Nc3ccc(N4CCOCC4)cc3)n2)cc1 [CYT387]	3.51	4.05	3.58	3.48
C=CC(=O)Nc1cc2c(Nc3ccc(F)c(Cl)c3)ncnc2cc1OCCCN1CCOCC1 [Canertinib]	3.85	2.17	2.6	2.35
CC(C)C[C@H](NC(=O)[C@H](CCc1ccccc1)NC(=O)CN1CCOCC1)C(=O)N[C@@H](Cc1ccccc1)C(=O)N[C@@H](CC(C)C)C(=O)[C@@]1(C)CO1 [Carfilzomib]	1.16	1.32	1.04	1.16

SMILES	IC50 (log10 nM) [1]	IC50 (log10 nM) [2]	IC50 (log10 nM) [3]	IC50 (log10 nM) [4]
COc1cc2c(Oc3ccc4[nH]c(C)cc4c3F)ncnc2cc1OCCCN1CCCC1 [Cediranib maleate]	2.93	< 0.826	2.67	3.38
O=C(O)CCCc1ccc(N(CCCl)CCCl)cc1 [Chlorambucil]	2.93	3.92	2.48	3.32
N.N.[Cl][Pt][Cl] [Cisplatin]	3.54	3.59	3.13	3
Nc1nc(Cl)nc2c1ncn2[C@H]1C[C@H](O)[C@@H](CO)O1 [Cladribine]	3.08	3.27	3.04	3.19
Nc1nc(Cl)nc2c1ncn2[C@@H]1O[C@H](CO)[C@@H](O)[C@@H]1F [Clofarabine]	3.04	3.27	2.97	3.15
O=C(c1ccc(F)c(F)c1Nc1ccc(I)cc1F)N1CC(O)([C@@H]2CCCCN2)C1 [Cobimetinib]	1.75	1.82	1.74	1.45
COc1c(OCCCN2CCOCC2)ccc2c1N=C(NC(=O)c1cnc(N)nc1)N1CCN=C21 [Copanlisib]	2	1.96	2.23	1.94
C[C@@H](Oc1cc(-c2cnn(C3CCNCC3)c2)cnc1N)c1c(Cl)ccc(F)c1Cl [Crizotinib]	2.96	2.95	3.22	3.4
Nc1ccn([C@@H]2O[C@H](CO)[C@@H](O)[C@@H]2O)c(=O)n1 [Cytarabine]	2.07	2.9	2.71	2.33
Cc1nc(Nc2ncc(C(=O)Nc3c(C)cccc3Cl)s2)cc(N2CCN(CCO)CC2)n1 [Dasatinib hydrochloride]	1.86	1.29	2.3	2.05
COc1cccc2c1C(=O)c1c(O)c3c(c(O)c1C2=O)C[C@@](O)(C(C)=O)C[C@@H]3O[C@H]1C[C@H](N)[C@H](O)[C@H](C)O1 [Daunorubicin hydrochloride]	1.6	1.73	1.77	1.56
Nc1ncn([C@H]2C[C@H](O)[C@@H](CO)O2)c(=O)n1 [Decitabine]	> 4.4	3.34	3.85	2.9
CCc1cnn2c(NCc3ccc[n+]([O-])c3)cc(N3CCCC[C@H]3CCO)nc12 [Dinaciclib]	> 4.4	4.28	4.11	> 4.4
CN1CCN(c2ccc3nc(-c4c(N)c5c(F)cccc5[nH]c4=O)[nH]c3c2)CC1 [Dovitinib]	3.46	3.41	3.4	3.21
COc1cccc2c1C(=O)c1c(O)c3c(c(O)c1C2=O)C[C@@](O)(C(=O)CO)C[C@@H]3O[C@H]1C[C@H](N)[C@H](O)[C@H](C)O1 [Doxorubicin]	2.14	2.2	2.23	2.02
Nc1ccccc1NC(=O)c1ccc(CNC(=O)OCc2cccnc2)cc1 [Entinostat]	3.36	3.99	3.39	4.22
C#Cc1cccc(Nc2ncnc3cc(OCCOC)c(OCCOC)cc23)c1 [Erlotinib]	> 4.4	2.67	2.97	2.58
COc1cc([C@@H]2c3cc4c(cc3[C@@H](O[C@@H]3O[C@@H]5CO[C@@H](C)O[C@H]5[C@H](O)[C@H]3O)[C@H]3COC(=O)[C@H]23)OCO4)cc(OC)c1O [Etoposide]	2.89	3.07	3.06	2.67
CO[C@H]1C[C@@H]2CC[C@@H](C)[C@@](O)(O2)C(=O)C(=O)N2CCCC[C@H]2C(=O)O[C@H]([C@H](C)C[C@@H]2CC[C@@H](OCCO)[C@H](OC)C2)CC(=O)[C@H](C)/C=C(\C)[C@@H](O)[C@@H](OC)C(=O)[C@H](C)C[C@H](C)/C=C/C=C/C=C/1C [Everolimus]	3.26	3.26	3.31	3.4
